Among the data in patent US20240182470A1, “KRASG12C MUTANT PROTEIN INHIBITOR, PREARATION AND USE THEREOF” (YA THERAPEUTICS INC, priority 2021, published 2024) are IC50 values, retold here.

Some results are limits rather than exact numbers.

The subject of the test is H358 (KRAS G12C mutant) cells. As to the kind of experiment: Tumor cell proliferation inhibition assay (Cell Titer-Glo, 72 h). Format: cell-based. The settings on record: inhibition of tumor cell proliferation, 72 hours with compound, 10% fetal bovine serum; read-out: NCI-H538 IC50(nm). The method, then:
The H358 (KRAS G^12C mutant) cells were digested, centrifuged and resuspended, and the cell density was measured with a Scepter automatic cell counter. The cells were diluted to a solution containing 44,000 cells per milliliter, and the density-adjusted cell solution was 90 microliters per well. into a 96-well culture plate. The 96-well plate was placed in a 37° C., 5% CO2 incubator. After the cells were cultured for 24 hours, different concentrations of the compounds to be tested were added. The cells were incubated with the compounds for 72 hours in the presence of 10% fetal bovine serum. Glo Luminescent Cell Viability Assay Kit (see manufacturer's instructions for details) was used to measure ATP content to assess cell growth inhibition. Briefly, 30 μl of Cell Titer-Glo reagent was added to each well, and the plate was shaken for 10 minutes to induce cell lysis. Fluoroskan
Ascent FL (Thermo) assay was used to record the fluorescent signal, and the maximum signal value was obtained from cells treated with dimethyl sulfoxide for 72 hours. The minimum signal value was obtained from the medium alone (the number of cells was zero), and the % inhibition rate=(the maximum signal value compound signal value)/(the maximum signal value—the minimum signal value×100%, and the data were processed using Graphpadprism 5 software. By sigmoid Dose-response curve fitting to calculate the IC50 value. “A” means IC50≤50 nM; “B” means 50<IC50≤500 nM; “C” means 500<IC50≤2000 nM; “D” means 2000 nM<IC50
By IC50 is commonly meant the point on the concentration scale where inhibition reaches its midpoint. Turning to “7-(8-Fluoronaphthyl)-8-fluoro-4-(((S)-4-acryloyl-3-carbonitrileethylpiperazine)-1-yl)-2-(((S)-2,2-Difluorotetrahydro-1H-pyrinyl-7a(5H)-yl)methoxy)quinazoline [Compound 63]”, the IC50 was not above 50 nM. The figure for “7-(8-Fluoronaphthyl)-8-fluoro-(((S)-4-(2-fluoroacryloyl)-3-carbonitrileethylpiperazine)-1-yl)-2-((((S)-2,2-difluorotetrahydro-1H-pyrincycline-7a(5H)-yl)methoxy)quinazoline [Compound 66]” is not above 50 nM; for “7-(8-Methylnaphthalene)-4-(((R)-4-Acryloyl-2-methylpiperazine)-1-yl)-2-(((1-(pyrrolidin-1-yl)methylcyclopropan-1-yl)methoxy)pyridine[2,3-d]lopyrimidine [Compound 17]” it is not above 50 nM. The result for “7-(8-Methylnaphthalene)-4-(((R)-4-Acryloyl-2-methylpiperazine)-1-yl)-24(1-(N,N-dimethylamineyl)methylcyclopropan-1-yl)methoxy)pyridine[2,3-d]lopyrimidine [Compound 22]” reads not above 50 nM; that for “7-(8-Methylnaphthalene)-4-(((R)-4-Acryloyl-3-carbonitrileethylpiperazine)-1-yl)-2-(((1-(pyrrolidin-1-yl))methylcyclopropan-1-yl)methoxy)pyridine[2,3-d]lopyrimidine [Compound 18]”, not above 50 nM; that for “7-(8-Methylnaphthalene)-4-(((R)-4-Acryloyl-3-carbonitrileethylpiperazine)-1-yl)-24(1-(N,N-Dimethyl)amino)methylcyclopropan-1-yl)methoxy)pyridine[2,3-d]lopyrimidine [Compound 19]”, not above 50 nM. The figure for “7-(8-Methylnaphthyl)-4-(((R)-4-acryloyl-2-methylpiperazine)-1-yl)-2-(((S)-2,2-difluoro tetrahydro-1H-pyrincycl-7a(5H)-yl)methoxy)pyridine[2,3-d]lopyrimidine [Compound 87]” is not above 50 nM; for “7-(8-Methylnaphthyl)-6-fluoro-4-(((R)-4-acryloyl-2-methylpiperazine)-1-yl)-1-y1)-2-(((S)-2,2-difluorotetrahydro-1H-pyrincyclo-7a(5H)-yl)methoxy)pyridine[2,3-d]lopyrimidine [Compound 80]” it is not above 50 nM. In the case of “7-(8-Methylnaphthyl)-6-fluoro-4-(((R)-4-acryloyl-2-methylpiperazine)-1-yl)-2-(((2R,7aS)-2-fluorotetrahydro-1H-pyrincyclo-7a(5H)-yl)methoxy)pyridine[2,3-d]lopyrimidine [Compound 81]”, the IC50 was not above 50 nM. The figure for “7-(8-Methylnaphthyl)-6-fluoro-4-(((S)-4-(2-fluoro acryloyl)-3-carbonitrileethylpiperazine)-1-yl)-2-(((S)-2,2-difluorotetrahydro-1H-pyrincycl-7a(5H)-yl)methoxy)pyridine[2,3-d]lopyrimidine [Compound 85]” is not above 50 nM; for “7-(8-Methylnaphthyl)-6-fluoro-4-(((S)-4-(2-fluoroacryloyl)-3-carbonitrileethylpiperazine)-1-yl)-2-(((2R,7aS)-2-fluorotetrahydro-1H-pyrinyl-7a(5H)-yl)methoxy)pyridine[2,3-d]lopyrimidine [Compound 82]” it is not above 50 nM. The figure for “7-(8-Methylnaphthyl)-8-fluoro-4-(((R)-4-acryloyl-2-methylpiperazine)-1-yl)-2-(((2R,7aS)tetrakishydrogen-1H-pyrinyl-7a(5H)-yl)methoxy)quinazoline [Compound 61]” is not above 50 nM; for “7-(8-Methylnaphthyl)-8-fluoro-4-(((R)-4-acryloyl-2-methylpiperazine)-1-yl)-2-(((S)-2,2-difluorotetrahydro-1H-pyrinyl-7a(5H)-yl)methoxy)quinazoline [Compound 62]” it is not above 50 nM. As for “7-(8-Methylnaphthyl)-8-fluoro-4-(((S)-4-(2-fluoroacryloyl)-3-carbonitrileethylpiperazine)-1-yl)-2-(((S)-2,2-difluorotetrahydro-1H-pyrincyclo-7a(5H)-yl)methoxy)quinazoline [Compound 72]”, the IC50 is not above 50 nM. As to “7-(8-fluoronaphthyl)-8-fluoro-4-(((R)-4-acryloyl-2-methylpiperazine)-1-yl)-2-(((S)-2,2-difluorotetrahydro-1H-pyrincyclo-7a(5H)-yl)methoxy)quinazoline [Compound 59]”, the IC50 was not above 50 nM. Turning to “7-(8-fluoronaphthyl)-8-fluoro-4-(((S)-4-(2-fluoroacryloyl)-3-carbonitrileethylpiperazine)-1-yl)-2-(((2R,7aS)-2-fluorotetrahydro-1H-pyrinyl-7a(5H)-yl)methoxy)quinazoline [Compound 51]”, the IC50 was not above 50 nM. The figure for `C=C(F)C(=O)N1CCN(c2cc(OC[C@@H]3CCCN3C)nc3nc(-c4cccc5cccc(F)c45)c(F)cc23)C[C@@H]1CC#N` [Compound 6] is not above 50 nM; for `C=C(F)C(=O)N1CCN(c2cc(OC[C@@H]3CCCN3C)nc3nc(-c4cccc5cccc(F)c45)c(F)cc23)[C@H](C)C1` [Compound 8] it is not above 50 nM; for `C=CC(=O)N1CCN(c2nc(OC[C@@H]3CCCN3C)nc3nc(-c4cccc5cccc(F)c45)c(F)cc23)[C@@H](C)C1` [Compound 10] it is not above 50 nM.

Consider `C=CC(=O)N1CCN(c2nc(OC[C@@H]3CCCN3C)nc3nc(-c4c(O)cccc4F)c(F)cc23)[C@@H](C)C1` [Compound 12, 7-(2-Fluoro-6-hydroxyphenyl)-6-fluoro-4-(((S)-4-(2-acryloyl)-2-methylpiperazine)-1-yl)-2-(((S)-1-(methyl-d3)pyrrolidin-2-yl)methoxy)pyridine[2,3-d]lopyrimidine], for which the concentration for half-maximal inhibition (IC50) was in the range of 500 to 2000 nM. The figure for `C=CC(=O)N1CCN(c2nc(OC[C@@]34CCCN3C[C@H](F)C4)nc3nc(-c4cccc5cccc(F)c45)c(F)cc23)C[C@H]1CC#N` [Compound 25, 7-(8-Fluoronaphthyl)-6-fluoro-4-(((R)-4-acryloyl-3-carbonitrileethylpiperazine)-1-yl)-2-(((2R,7aS)-2-fluorotetrahydro-1H-pyrincycl-7a(5H)-yl)methoxy)pyridine[2,3-d]lopyrimidine] is not above 50 nM. The figure for `C=CC(=O)N1CCN(c2nc(OC[C@@]34CCCN3C[C@H](F)C4)nc3nc(-c4cccc5cccc(F)c45)c(F)cc23)[C@H](C)C1` [Compound 26, 7-(8-Fluoronaphthyl)-6-fluoro-4-(((R)-4-acryloyl-2-methylpiperazine)-1-yl)-2-(((2R,7aS)-2-Fluorotetrahydro-1H-pyrincycl-7a(5H)-yl)methoxy)pyridine[2,3-d]lopyrimidine] is not above 50 nM; for `C=CC(=O)N1C2CCC1CN(c1nc(OC[C@@]34CCCN3C[C@H](F)C4)nc3nc(-c4cccc5cccc(F)c45)c(F)cc13)C2` [Compound 27] it is not above 50 nM.

As to `C=C(F)C(=O)N1CCN(c2nc(OC[C@@]34CCCN3C[C@H](F)C4)nc3nc(-c4cccc5cccc(F)c45)c(F)cc23)C[C@@H]1CC#N` [Compound 29], the IC50 was not above 50 nM.

Turning to `C=C(F)C(=O)N1CCN(c2nc(OC[C@@]34CCCN3C[C@H](F)C4)nc3nc(-c4cccc5cccc(F)c45)c(F)cc23)[C@H](C)C1` [Compound 30], the IC50 was not above 50 nM. The figure for `C=C(F)C(=O)N1C2CCC1CN(c1nc(OC[C@@]34CCCN3C[C@H](F)C4)nc3nc(-c4cc(O)cc5cccc(F)c45)c(F)cc13)C2` [Compound 32, 7-(3-Hydroxy-8-fluoronaphthyl)-6-fluoro-4-(8-(2-fluoroacryloyl)-3,8-diazabicyclo[3.2.1]octan-3-yl)-2-(((2R,7aS)-2-fluorotetrahydro-1H-pyrincycl-7a(5H)-yl)methoxy)pyridine[2,3-d]lopyrimidine] is not above 50 nM. The result for `C=C(F)C(=O)N1CCN(c2nc(OC[C@@]34CCCN3C[C@H](F)C4)nc3nc(-c4cc(O)cc5cccc(F)c45)c(F)cc23)C[C@@H]1CC#N` [Compound 33, 7-(3-Hydroxy-8-fluoronaphthyl)-6-fluoro-4-(((S)-4-(2-fluoroacryloyl)-3-carbonitrileethylpiperazine)-1-yl)-2-(((2R,7aS)-2-fluorotetrahydro-1H-pyrincycl-7a(5H)-yl)methoxy)pyridine[2,3-d]lopyrimidine] reads not above 50 nM; that for `C=C(F)C(=O)N1CCN(c2nc(OC[C@@]34CCCN3C[C@H](F)C4)nc3nc(-c4cc(O)cc5cccc(F)c45)c(F)cc23)[C@H](C)C1` [Compound 34, 7-(3-Hydroxy-8-fluoronaphthyl)-6-fluoro-4-(((R)-4-(2-fluoroacryloyl)-2-methylpiperazine)-1-yl)-2-(((2R,7aS)-2-fluorotetrahydro-1H-pyrincyclin-7a(5H)-yl)methoxy)pyridine[2,3-d]lopyrimidine], not above 50 nM; that for `C=CC(=O)N1CCN(c2nc(OC[C@@]34CCCN3C[C@H](F)C4)nc3nc(-c4cc(O)cc5cccc(F)c45)c(F)cc23)C[C@@H]1CC#N` [Compound 35, 7-(3-Hydroxy-8-fluoronaphthyl)-6-fluoro-4-(((S)-4-acryloyl-3-carbonitrileethylpiperazine)-1-yl)-2-(((2R,7aS)-2-fluorotetrahydro-1H-pyrinyl-7a(5H)-yl)methoxy)pyridine[2,3-d]lopyrimidine], not above 50 nM.
